# Measurements taken from US20120258042A1, “COMBINED USE OF TGF-B SIGNALING INHIBITOR AND ANTITUMOR AGENT” (priority 2006, published 2012).
# Read-outs that look alike come from different tables or passages of the source.
# Assays:
# [1] = tested on: Smad-4-deficient pancreatic adenocarcinoma cells (BxPC3); assay: 3-7 BxPC3 xenograft growth curve, three administrations of ADR or Micelle-ADR with or without LY; assay type: in vivo, nude mice; details: day 16, Micelle-ADR 16 mg/kg or ADR 8 mg/kg i.v. three times spaced by four days, LY 1 mg/kg i.p. three times a week, start = 1, control 4.69±0.46
# Description: For each of, 16 mg/kg of Micelle-ADR or 8 mg/kg of ADR as anticancer agent, or no anticancer agent, administration via the tail vein was carried out three times spaced by four days. […] For these animals, the approximated values of tumor volume were observed continuously for 16 days.
# [2] = tested on: Smad-4-deficient pancreatic adenocarcinoma cells (BxPC3); assay: 3-6 BxPC3 xenograft growth curve, single administration of ADR, Doxil, Micelle-ADR with or without LY; assay type: in vivo, nude mice; details: day 14, single dose 8 mg/kg anticancer agent i.v., LY 1 mg/kg i.p. once, start = 1, control 4.77±0.50
# Description: For each of 8 mg/kg of Doxil, 8 mg/kg of Micelle-ADR or 8 mg/kg of ordinary ADR as anticancer agent, or no anticancer agent, which was administrated via the tail vein, administration was carried out only once. […] Inhib in the figures) as TGF-β inhibitor or a control.
# [3] = tested on: TGFbRII-mutant pancreatic adenocarcinoma cell line MIA PaCa-2; assay: 3-8 MIA PaCa-2 xenograft tumor growth curve; assay type: in vivo, nude mice; details: regimen as 3-7, start = 1, control 2.91±0.30
# Description: For each of, 16 mg/kg of Micelle-ADR or 8 mg/kg of ADR as anticancer agent, or no anticancer agent, administration via the tail vein was carried out three times spaced by four days. As TGF-β inhibitor, 1 mg/kg of LY364947 (hereinafter, referred to as LY) or control was administered three times a week intraperitoneally. The experiment was carried out for the six conditions combining the above 3×2 types [of administration modes], with n=5 each. For these animals, the approximated values of tumor volume were observed continuously for 16 days. For the tumor volumes, those that have been approximated by long side of tumor mass×(short side)^2 were compared, taking 1 as the value at the administration start time for each tumor mass.
# [4] = tested on: Smad-4-deficient pancreatic adenocarcinoma cells (BxPC3); assay: Combined effect of Gemcitabine and LY364947 on tumor volume, pancreatic adenocarcinoma xenograft model; assay type: in vivo, nude mice; details: day 21, Gem 125 mg/kg i.p. twice a week, LY 1 mg/kg i.p. three times a week, value at start = 1, control 5.56±1.59
# Description: Combining Gemcitabine (hereinafter, abbreviated as Gem), administrated twice a week intraperitoneally at 125 mg/kg, and LY364947 (hereinafter, referred to as LY), administrated three times a week intraperitoneally at 1 mg/kg, three groups were established as follows: a control group, a Gem alone administration group and a LY+Gem combined application group, with n=2 each. […] The tumor volumes were approximated by long side of tumor mass×(short side)^2 and compared, taking 1 as the value at the administration start time for each tumor mass.
# [5] = 3-14 Drug in vivo dynamics in general organs, Micelle-ADR or ADR with LY; parameters: species or system nude mice
# Description: Each of 8 mg/kg of Micelle-ADR or 8 mg/kg of ADR as anticancer agent was administered to tumor-bearing nude mice via the tail vein. As TGF-β inhibitor, 1 mg/kg of LY or a control was administered intraperitoneally. Experiment was carried out for the four conditions combining the above 2×2 types [of administration modes], with n=3. […] In addition, the surrounding of the tail vein where the agents were administered was observation.
# neovasculature = assay: Matrigel plug assay, effects of TGF-β signaling inhibitor on neovasculature; assay type: in vivo, ICR mice; details: 500 nM LY
# Description: In the present invention, increasing the leakiness of neovasculature in tumor tissue, and, depending on the circumstances, decreasing fibrosis, are phenomena that can be observed, for instance, in a dextran injection experiment (briefly, an experiment in which a mouse is used, a Matrigel in which VEGF-A and FGF-2 have been mixed is injected subcutaneously into the abdominal wall, and seven days after administering TGF-β signaling inhibitor intraperitoneally, 2,000,000 molecular weight dextran is injected, the animal is sacrificed, and the relationship between neovasculature and dextran distribution in the extracted Matrigel plug is determined: refer to Kano, M. R. et al., J. Cell Sci., 118, 3759-3768. (2005)) (refer to FIG. 2-1 and FIG. 2-2).
# VEGF-A, FGF-2, and heparin were mixed into Matrigel (BD), furthermore, 500 nM of the TGF-β inhibitor LY364947 (hereinafter, referred to as LY) or 50 μg/ml of T βRII:Fc or a control was further mixed into the same gel, these were subcutaneously injected into the abdominal wall of male ICR mice, the animals were sacrificed on the 7th day to extract the Matrigel plug, and a search was carried out using immunofluorescence staining. Concretely, regarding the neovasculature morphology, vascular endothelial cells were recognized with an antibody against PECAM-1 (platelet endothelial cell adhesion molecule-1) and vascular pericytes were recognized with an antibody against SMA (a smooth muscle actin), in the LY-administered group or control group, the proportion of the areas covered by pericytes within the total endothelial cell area, and, the areas positive for the vascular endothelium marker were quantified (hereabove, n=20). In addition, 6 hours prior to sacrifice, macromolecular dextran with a molecular weight of 2,000,000 (Invitrogen Molecular Probes) was administered via the tail vein, and the difference in distribution in tumor tissue due to the presence or absence of inhibitor was investigated by quantification of the distribution area (n=21).
# [6] = tested on: neovasculature in BxPC3 tumor tissue; assay: 3-1 BxPC3 xenograft, neovasculature morphological change and dextran distribution; assay type: in vivo, nude mice
# Description: Twenty-four hours before sacrificing the animals, 1 mg/kg of LY364947 (hereinafter, referred to as LY) as TGF-β inhibitor or a control was administered once intraperitoneally. […] Concretely, regarding the neovasculature morphology, vascular endothelial cells were recognized with an antibody against PECAM-1 (platelet endothelial cell adhesion molecule-1), vascular pericytes were recognized with an antibody against NG2 (neuroglycan 2), the proportion of the areas covered by pericytes within the total endothelial cell area, and, the areas positive for the vascular endothelium marker were quantified (hereabove, n=4 animals×10 microscopic visual fields=40), in addition, regarding dextran distribution, the distribution area thereof was quantified. In addition, after an identical model was prepared, 6 hours prior to sacrifice, macromolecular dextran with a molecular weight of 2,000,000 (Invitrogen Molecular Probes) was administered via the tail vein, and the difference in distribution in tumor tissue due to the presence or absence of inhibitor was investigated by quantification of the distribution area (n=3 animals×4 microscopic visual field=12).
# phosphorylated Smad2 [7] = assay: 3-4 Phosphorylated Smad2 in nucleated blood cells by FACS one hour after LY364947; assay type: in vivo, nude mice; details: LY 1 mg/kg i.p., 1 h, control group 35.7%
# Description: Cancer-transplanted nude mice were administered once intraperitoneally with 1 mg/kg of LY as TGF-β inhibitor or a control. One hour after administration, whole blood collection was carried out, hemolysis treatment, formalin fixation, cell membrane perforation by methanol were carried out, then, staining was carried out with an antibody against phosphorylated Smad2, thereafter, the ratio of phosphorylated Smad2-positive cells was measured by FACS. In so doing, with those [samples] where only the secondary antibody was reacted serving as controls for the immuno-staining method, the gate was set so that rate of positive cell was approximately 1% in this group (P1 in FIG. 5-2), and the ratio of phosphorylated Smad2-positive cells was measured for the TGF-β inhibitor-administered group and the non-treated group.
# [8] = tested on: existing vasculature of general organs (brain, liver, kidney); assay: 3-2 General organs, vasculature morphological change and dextran distribution; assay type: in vivo, nude mice; details: LY 1 mg/kg i.p.
# Excerpt: Brain, liver and kidney were extracted from animals used in 3-1 to carry out histological search.
# phosphorylated Smad2 [9] = assay: 3-3 Phosphorylated Smad2 staining in BxPC3 cancer tissue one hour after LY364947; assay type: in vivo, nude mice; details: 1 h
# Description: As TGF-β inhibitor, 1 mg/kg, 25 mg/kg or a control of LY was administered once intraperitoneally. The animals were sacrificed one hour after administration to extract the tumor, and immuno-histological staining of the tumor was carried out using an antibody against phosphorylated Smad2 as well as an antibody against PECAM1.
# [10] = tested on: mouse breast cancer cell line 4T1; details: systemic administration by intraperitoneal injection; cited from earlier work
# hepatic fibrosis = details: intraperitoneal injection, cited from earlier work
molecule,measurement,setting,value
"COc1cccc2c1C(=O)c1c(O)c3c(c(O)c1C2=O)C[C@@](O)(C(=O)CO)C[C@@H]3O[C@H]1C[C@H](N)[C@H](O)[C@H](C)O1 [ADR, adriamycin]",relative tumor volume on the last day,[1],3.49±0.20
same,relative tumor volume on the last day,[2],4.70±0.32
same,relative tumor volume on the last day (16th day),[3],0.87±0.19
Nc1ccn([C@@H]2O[C@H](CO)[C@@H](O)C2(F)F)c(=O)n1 [Gemcitabine],relative tumor volume on the last day,[4],4.76±0.46
c1ccc(-c2[nH]ncc2-c2ccnc3ccccc23)nc1 [LY364947],"organ distribution (frozen samples), LY administration vs non-administration","[5]; LY 1 mg/kg i.p., four hours",no clear difference
same,"total amount of ADR in organs by the HPLC method, LY administration vs non-administration","[5]; Micelle-ADR 8 mg/kg i.v., LY 1 mg/kg i.p., four hours, all organs measured",no significant difference
same,anticancer agent-related phlebitis,"[5]; combined administration of LY 1 mg/kg i.p., surrounding of the tail vein",no deterioration
same,relative tumor volume on the last day,[1],4.34±0.37
same,relative tumor volume on the last day,[2],4.83±0.54
same,total area of the vascular endothelium,"neovasculature; day 7, p=0.0009",increased significantly
same,endothelial cell coverage of the pericytes,"neovasculature; day 7, vs non-administered group, p=0.006",decreased significantly
same,dextran distribution area,"neovasculature; dextran MW 2,000,000 i.v. 6 h before sacrifice, p<0.0001",increased approximately two-fold
same,endothelial cell marker-positive area,"[6]; BxPC3 xenograft, LY 1 mg/kg i.p. once, 24 h, control 1.00±0.03, p=0.02",1.13±0.06
same,extent of coverage of endothelial cells by the pericyte,"[6]; BxPC3 xenograft, LY 1 mg/kg i.p. once, 24 h, control 36.0±2.2%, p=0.00002",23.3±1.9%
same,macromolecular dextran distribution area,"[6]; BxPC3 xenograft, LY 1 mg/kg i.p. once, dextran MW 2,000,000 6 h before sacrifice, control 1.00±0.13, p=0.002",2.24±0.36
same,fibrosis of tumor tissue (azan staining),"[6]; LY 1 mg/kg, administered vs non-administered, P=0.336",no significant difference
same,cells positive for phosphorylated Smad2,phosphorylated Smad2 [7],16.3%
same,dextran distribution in general organs,[8],no clear difference
same,morphology of existing vasculature of general organs,[8],No clear change in morphology
same,"Smad2 phosphorylation in intratumoral vascular walls, magnified visual field",phosphorylated Smad2 [9]; LY 1 mg/kg i.p.,cancellation of Smad2 phosphorylation was observed
same,"phosphorylated Smad2 staining of tumor vs control, weak magnification visual field",phosphorylated Smad2 [9]; LY 1 mg/kg i.p.,no remarkable difference
same,Smad2 phosphorylation in cancer cells,phosphorylated Smad2 [9]; LY 25 mg/kg i.p.,cancellation of Smad2 phosphorylation was observed in almost the entirety of the cancer cells
same,relative tumor volume on the last day (16th day),[3],2.75±0.08
"solubilized TGF-β Type II receptor: solubilized TGF-β Type II receptor (TGF-β ligand-adsorbed) protein, literature studies (protein, UniProt P37173 23-166, looked up, extracellular domain, solubilized TGF-β Type II receptor (TGF-β ligand-adsorbed) protein, literature studies) extracellular domain: TIPPHVQKSVNNDMIVTDNNGAVKFPQLCKFCDVRFSTCDNQKSCMSNCSITSICEKPQEVCVAVWRKNDENITLETVCHDPKLPYHDFILEDAASPKCIMKEKKKPGETFFMCSCSSDECNDNIIFSEEYNTSNPDLLLVIFQ",lung metastasis,[10],decreased
same,hepatic fibrosis,hepatic fibrosis; 2.5 mg/kg,not suppressed
same,hepatic fibrosis,hepatic fibrosis; 5 mg/kg,suppressed
